Experimental findings from US20220073536A1 (Rigel Pharmaceuticals, Inc., priority 2003, published 2022) are described below.

Assay [1] deals with cultured human mast cells (CHMC). Description: CHMC low cell density ionomycin activation: tryptase assay. The settings on record: low cell density CHMC, tryptase release, 3 point, read-out: LD Tryptase, CHMC, Iono, 3 pt. The format is cell-based.
Assay [2] shares this test system. Description: CHMC low cell density IgE activation: tryptase assay. It counts as cell-based. The settings on record: low cell density CHMC, IgE activation, tryptase release. The procedure, abridged: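 Tryptase release was read from supernatant with a fluorogenic substrate (30 min, room temperature) after anti-IgE challenge of cultured human mast cells (1000–1500 cells/well, low density) for 30 minutes at 37° C.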

[3] abbreviates: Homo sapiens, Mast cell, 3 point, read-out: LD Tryptase, CHMC, IgE, 3 pt.
The mark [4] stands for this setting: Homo sapiens, Mast cell, 8 point, read-out: LD Tryptase, CHMC, IgE, 8 pt.
[5] abbreviates: 3 point, read-out: LD Tryptase, CHMC, IgE, 3 pt.
The mark [6] stands for this setting: 8 point, read-out: LD Tryptase, CHMC, IgE, 8 pt.

Molecules are shown by their SMILES. Bounds are passed on as bounds.

Turning to `CNC(=O)c1ccc(Nc2ncc(F)c(Nc3ccc(Cl)c(OC)c3)n2)cc1Cl` [Compound 611, N4-(4-Chloro-3-methoxyphenyl)-N2-[3-chloro-4-(N-methylamino)carbonylphenyl]-5-fluoro-2,4-pyrimidinediamine], the IC50 in assay [1] (Homo sapiens, Mast cell) was more than 10 µM; in assay [2] (setting [3]), less than 10 µM; in assay [2] (setting [4]), less than 10 µM.
Regarding `CNC(=O)c1ccc(Nc2ncc(F)c(Nc3ccc(Cl)c(C(F)(F)F)c3)n2)cc1Cl` [Compound 612, N2-[3-Chloro-4-(N-methylamino)carbonylphenyl]-N4-(4-chloro-3-trifluoromethylphenyl)-5-fluoro-2,4-pyrimidinediamine], the IC50 in assay [1] (Homo sapiens, Mast cell) was more than 10 µM; in assay [2] (setting [3]), less than 10 µM; in assay [2] (setting [4]), less than 10 µM.
With `CNC(=O)c1ccc(Nc2ncc(F)c(N(C)c3cc(C)c(Cl)c(C)c3)n2)cc1Cl` [Compound 613, N4-(4-Chloro-3,5-dimethylphenyl)-N2-[3-chloro-4-(N-methylamino)carbonylphenyl]-5-fluoro-N4-methyl-2,4-pyrimidinediamine], the IC50 was more than 10 µM in assay [1] (Homo sapiens, Mast cell) and less than 10 µM in assay [2] (setting [3]).
Regarding `COC(=O)COc1ccc(Nc2nc(Nc3cc(C)cc(C)c3)ncc2F)cc1Cl` [Compound 614, N4-[3-Chloro-4-(methoxycarbonyl)methyleneoxyphenyl]-N2-(3,5-dimethylphenyl)-5-fluoro-2,4-pyrimidinediamine], the IC50 in assay [1], in assay [2] (setting [5]) and in assay [2] (setting [6]) was less than 10 µM in each case.
In the case of `COC(=O)COc1ccc(Nc2nc(Nc3cc(OC)cc(OC)c3)ncc2F)cc1Cl` [Compound 615, N4-[3-Chloro-4-(methoxycarbonyl)methyleneoxyphenyl]-N2-(3,5-dimethoxyphenyl)-5-fluoro-2,4-pyrimidinediamine], the IC50 in assay [1], in assay [2] (setting [5]) and in assay [2] (setting [6]) was less than 10 µM each time.
Turning to `COC(=O)COc1ccc(Nc2nc(Nc3ccc(OC)c(Cl)c3)ncc2F)cc1Cl` [Compound 616, N4-[3-Chloro-4-(methoxycarbonyl)methyleneoxyphenyl]-N2-(3-chloro-4-methoxyphenyl)-5-fluoro-2,4-pyrimidinediamine], the IC50 in assay [1], in assay [2] (setting [5]) and in assay [2] (setting [6]) was less than 10 µM in each case.
`COC(=O)COc1ccc(Nc2nc(Nc3cc(C)c(Cl)c(C)c3)ncc2F)cc1Cl` [Compound 617, N2-(4-Chloro-3,5-dimethylphenyl)-N4-[3-chloro-4-(methoxycarbonyl)methyleneoxyphenyl]-5-fluoro-2,4-pyrimidinediamine]: the IC50 in assay [1], in assay [2] (setting [5]) and in assay [2] (setting [6]) was less than 10 µM throughout.
Consider `COC(=O)COc1ccc(Nc2nc(Nc3ccc4[nH]ccc4c3)ncc2F)cc1Cl` [Compound 618, N4-[3-Chloro-4-(methoxycarbonyl)methyleneoxyphenyl]-5-fluoro-N2-(indol-5-yl)-2,4-pyrimidinediamine], for which the figures for the IC50 in assay [1], in assay [2] (setting [5]) and in assay [2] (setting [6]) were more than 10 µM, less than 10 µM and less than 10 µM, respectively.
Take `Cc1cc(C)cc(Nc2ncc(F)c(Nc3ccc(OCCO)c(Cl)c3)n2)c1` [Compound 619, N4-[3-Chloro-4-(2-hydroxyethyleneoxy)phenyl]-N2-(3,5-dimethylphenyl)-5-fluoro-2,4-pyrimidinediamine]: the IC50 in assay [1], in assay [2] (setting [5]) and in assay [2] (setting [6]) was less than 10 µM in each case.
Turning to `COc1cc(Nc2ncc(F)c(Nc3ccc(OCCO)c(Cl)c3)n2)cc(OC)c1` [Compound 620, N4-[3-Chloro-4-(2-hydroxyethyleneoxy)phenyl]-N2-(3,5-dimethoxyphenyl)-5-fluoro-2,4-pyrimidinediamine], the IC50 in assay [1], in assay [2] (setting [5]) and in assay [2] (setting [6]) was less than 10 µM throughout.
`COc1ccc(Nc2ncc(F)c(Nc3ccc(OCCO)c(Cl)c3)n2)cc1Cl` [Compound 621, N4-[3-Chloro-4-(2-hydroxyethyleneoxy)phenyl]-N2-(3-chloro-4-methoxyphenyl)-5-fluoro-2,4-pyrimidinediamine]: the figures for the IC50 in assay [1], in assay [2] (setting [5]) and in assay [2] (setting [6]) were more than 10 µM, less than 10 µM and less than 10 µM, respectively.
`Cc1cc(Nc2ncc(F)c(Nc3ccc(OCCO)c(Cl)c3)n2)cc(C)c1Cl` [Compound 622, N2-(4-Chloro-3,5-dimethylphenyl)-N4-[3-chloro-4-(2-hydroxyethyleneoxy)phenyl]-5-fluoro-2,4-pyrimidinediamine]: the values for the IC50 in assay [1], in assay [2] (setting [5]) and in assay [2] (setting [6]) were more than 10 µM, less than 10 µM and less than 10 µM, respectively.
On to `OCCOc1ccc(Nc2nc(Nc3ccc4[nH]ccc4c3)ncc2F)cc1Cl` [Compound 623, N4-[3-Chloro-4-(2-hydroxyethyleneoxy)phenyl]-5-fluoro-N2-(indol-5-yl)-2,4-pyrimidinediamine], for which the IC50 in assay [1], in assay [2] (setting [5]) and in assay [2] (setting [6]) was less than 10 µM each time.
With `COc1cc(Nc2ncc(F)c(Nc3ccc(OCCO)c(Cl)c3)n2)ccc1Cl` [Compound 624, N4-[3-Chloro-4-(2-hydroxyethyleneoxy)phenyl]-N2-(4-chloro-3-methoxyphenyl)-5-fluoro-2,4-pyrimidinediamine], the IC50 is more than 10 µM in assay [1], less than 10 µM in assay [2] (setting [5]) and less than 10 µM in assay [2] (setting [6]).
As to `CNC(=O)COc1ccc(Nc2nc(Nc3ccc4[nH]ccc4c3)ncc2F)cc1Cl` [Compound 625, N4-[3-Chloro-4-(N-methylamino)carbonylmethyleneoxyphenyl]-5-fluoro-N2-(indol-5-yl)-2,4-pyrimidinediamine], the IC50 in assay [1], in assay [2] (setting [5]) and in assay [2] (setting [6]) was less than 10 µM in each case.
For the molecule `Cc1cc(N(C)c2nc(Cl)ncc2F)cc(C)c1Cl` [Compound 626], the IC50 was less than 10 µM in assay [1] (Homo sapiens, Mast cell) and more than 10 µM in assay [2] (setting [3]).
On to `CN(c1ccc2c(c1)OC(F)(F)C(F)(F)O2)c1nc(Cl)ncc1F` [Compound 627], for which the IC50 in assay [1] and in assay [2] (setting [5]) was more than 10 µM each time.
On to `CN(c1ccc2c(c1)OC(F)(F)O2)c1nc(Cl)ncc1F` [Compound 628], for which the IC50 in assay [1] and in assay [2] (setting [5]) was more than 10 µM throughout.
Regarding `Fc1cnc(Nc2ccc3cc[nH]c3c2)nc1Nc1ccc(Cl)c(C(F)(F)F)c1` [Compound 629, N4-(4-Chloro-3-trifluoromethylphenyl)-5-fluoro-N2-(indol-6-yl)-2,4-pyrimidinediamine], the IC50 was more than 10 µM in assay [1] (Homo sapiens, Mast cell); less than 10 µM in assay [2] (setting [3]); less than 10 µM in assay [2] (setting [4]).
With `COc1cc(Nc2nc(Nc3ccc4cc[nH]c4c3)ncc2F)ccc1Cl` [Compound 630, N4-(4-Chloro-3-methoxyphenyl)-5-fluoro-N2-(indol-6-yl)-2,4-pyrimidinediamine], the IC50 in assay [1] (Homo sapiens, Mast cell) is more than 10 µM; in assay [2] (setting [3]), less than 10 µM; in assay [2] (setting [4]), less than 10 µM.
In the case of `COC(=O)COc1ccc(Nc2nc(Nc3ccc4cc[nH]c4c3)ncc2F)cc1Cl` [Compound 631, N4-(3-Chloro-4-methoxycarbonylmethyleneoxyphenyl)-5-fluoro-N2-(indol-6-yl)-2,4-pyrimidinediamine], the IC50 in assay [1], in assay [2] (setting [5]) and in assay [2] (setting [6]) was less than 10 µM throughout.
As to `OCCOc1ccc(Nc2nc(Nc3ccc4cc[nH]c4c3)ncc2F)cc1Cl` [Compound 632, N4-[3-Chloro-4-(2-hydroxyethyleneoxy)phenyl]-5-fluoro-N2-(indol-6-yl)-2,4-pyrimidinediamine], the IC50 in assay [1] is more than 10 µM; in assay [2] (setting [5]), less than 10 µM; in assay [2] (setting [6]), less than 10 µM.
For the molecule `Fc1cnc(Nc2cccc(-c3ncco3)c2)nc1Nc1ccc2c(c1)OC(F)(F)C(F)(F)O2` [Compound 633], the IC50 is more than 10 µM in assay [1] and less than 10 µM in assay [2] (setting [5]).
In the case of `CN(c1ccc2c(c1)OC(F)(F)C(F)(F)O2)c1nc(Nc2cccc(-c3ncco3)c2)ncc1F` [Compound 634], the results for the IC50 in assay [1], in assay [2] (setting [5]) and in assay [2] (setting [6]) were more than 10 µM, more than 10 µM and less than 10 µM, respectively.
Take `CNC(=O)COc1c(C)cc(Nc2ncc(F)c(N(C)c3ccc4c(c3)OCCO4)n2)cc1C` [Compound 635, N2-[3,5-Dimethyl-4-(N-methylamino)carbonylmethyleneoxyphenyl]-N4-(3,4-ethylenedioxyphenyl)-5-fluoro-N4-methyl-2,4-pyrimidinediamine]: the IC50 in assay [1], in assay [2] (setting [5]) and in assay [2] (setting [6]) was less than 10 µM in each case.
Take `CNC(=O)COc1c(C)cc(Nc2ncc(F)c(N(C)c3ccc4c(c3)OC(F)(F)C(F)(F)O4)n2)cc1C` [Compound 636, N2-[3,5-Dimethyl-4-(N-methylamino)carbonylmethyleneoxyphenyl]-5-fluoro-N4-methyl-N4-[3,4-(tetrafluoroethylenedioxy)phenyl]-2,4-pyrimidinediamine]: the IC50 in assay [1], in assay [2] (setting [5]) and in assay [2] (setting [6]) was less than 10 µM each time.
With `CNC(=O)COc1c(C)cc(Nc2ncc(F)c(Nc3ccc4c(c3)OC(F)(F)C(F)(F)O4)n2)cc1C` [Compound 637, N2-[3,5-Dimethyl-4-(N-methylamino)carbonylmethyleneoxyphenyl]-5-fluoro-N4-[3,4-(tetrafluoroethylenedioxy)phenyl]-2,4-pyrimidinediamine], the IC50 in assay [1] is more than 10 µM; in assay [2] (setting [5]), less than 10 µM.
As for `CNC(=O)COc1c(C)cc(Nc2ncc(F)c(N(C)c3cc(OC)cc(OC)c3)n2)cc1C` [Compound 638, N2-[3,5-Dimethyl-4-(N-methylamino)carbonylmethyleneoxyphenyl]-N4-(3,5-dimethoxyphenyl)-5-fluoro-N4-methyl-2,4-pyrimidinediamine], the IC50 in assay [1], in assay [2] (setting [5]) and in assay [2] (setting [6]) was less than 10 µM throughout.
